Target: T1, NLRP3 (Mus musculus, UniProt Q8R4B8)
T1 construct: Macrophages from C57BL/6 mice were differentiated from bone marrow; endogenous in cells; host or cells: primary bone marrow-derived macrophages (BMDM) from C57BL/6 mice
Test: NLRP3 inflammasome assay: IL-1β secretion from LPS-primed, ATP-stimulated murine BMDM (Table 1)
Format: cell-based, murine (C57BL/6 mice)
Conditions: ATP 2.5 mM 1 h, ELISA, read-out: IC50 (NLRP3 inhibitory activity)
Protocol: The NLRP3-inhibitory effect of a number of the above compounds was tested by measuring the IL-1β secretion from murine bone marrow derived macrophages (BMDM) primed with lipopolysaccharide (LPS), treated with test compound (to a maximum concentration of 200 μM) and finally stimulated with the NLRP3 stimulus ATP. The half-maximal inhibitory concentration (IC50) was determined for each compound and compared to a number of comparative examples (CE 1-10) including commercially available oral sulphonylureas (CE1-6) and the known NLRP3 inhibitor MCC 950 (CE7). The experimental protocol was as follows.
The University of Queensland Animal Ethics Committee approved all experimental protocols involving mice.
NLRP3 INFLAMMASOME ASSAY: BMDM were seeded at 1×10^6 cells/mL in 96 well plates. The following day the overnight medium was replaced with Opti-MEM® reduced serum medium (Life Technologies) and cells were stimulated with 100 ng/mL ultrapure E. coli K12 LPS (Invivogen) for 3 h. Compounds were prepared from a 10 mM stock by serial dilution in 80% DMSO/20% 10 mM ammonium bicarbonate. […] IL-1β levels in cell-free supernatants were analysed by ELISA (ReadySetGo!® eBioscience).

T1 sequence (Q8R4B8 whole entry): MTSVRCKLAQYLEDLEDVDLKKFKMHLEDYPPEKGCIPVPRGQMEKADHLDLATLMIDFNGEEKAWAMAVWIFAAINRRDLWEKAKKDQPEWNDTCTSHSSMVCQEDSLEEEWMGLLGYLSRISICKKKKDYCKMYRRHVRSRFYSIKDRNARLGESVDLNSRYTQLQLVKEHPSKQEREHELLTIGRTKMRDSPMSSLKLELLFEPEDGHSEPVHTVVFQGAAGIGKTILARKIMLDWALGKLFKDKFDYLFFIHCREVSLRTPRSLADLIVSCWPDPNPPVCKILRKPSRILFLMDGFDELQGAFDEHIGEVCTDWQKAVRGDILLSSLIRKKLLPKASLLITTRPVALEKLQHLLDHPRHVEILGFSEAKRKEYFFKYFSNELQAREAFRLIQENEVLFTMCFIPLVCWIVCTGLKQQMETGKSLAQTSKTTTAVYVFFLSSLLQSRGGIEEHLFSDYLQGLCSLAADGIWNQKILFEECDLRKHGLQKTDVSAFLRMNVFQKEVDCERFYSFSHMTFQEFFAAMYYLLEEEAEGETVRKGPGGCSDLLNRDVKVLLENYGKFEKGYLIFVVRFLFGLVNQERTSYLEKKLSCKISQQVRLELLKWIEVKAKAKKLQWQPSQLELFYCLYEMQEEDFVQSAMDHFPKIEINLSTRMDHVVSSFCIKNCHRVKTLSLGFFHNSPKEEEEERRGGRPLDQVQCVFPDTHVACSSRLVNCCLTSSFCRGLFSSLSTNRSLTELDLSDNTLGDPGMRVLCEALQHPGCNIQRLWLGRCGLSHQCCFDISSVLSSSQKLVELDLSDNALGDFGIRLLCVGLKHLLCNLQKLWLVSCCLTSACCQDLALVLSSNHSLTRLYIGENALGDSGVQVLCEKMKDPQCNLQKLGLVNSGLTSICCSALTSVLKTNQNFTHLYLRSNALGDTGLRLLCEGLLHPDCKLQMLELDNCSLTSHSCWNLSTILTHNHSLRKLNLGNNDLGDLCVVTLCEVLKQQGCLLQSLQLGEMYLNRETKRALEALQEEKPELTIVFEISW

Compound	IC50 [nM]
CC(=O)c1ccc(S(=O)(=O)NC(=O)NC2CCCCC2)cc1 [CE1, Acetohexamide]	> 200000
Cc1cnc(C(=O)NCCc2ccc(S(=O)(=O)NC(=O)NC3CCCCC3)cc2)cn1 [CE3, Glipizide]	> 200000
CCC1=C(C)CN(C(=O)NCCc2ccc(S(=O)(=O)NC(=O)N[C@H]3CC[C@H](C)CC3)cc2)C1=O [CE6, Glimepiride]	> 50000
O=C(Nc1c2c(cc3c1CCC3)CCC2)NS(=O)(=O)c1ccc2c(c1)CCC2 [CE9]	< 1000
O=C(Nc1c2c(cc3c1CCC3)CCC2)NS(=O)(=O)c1ccc([N+](=O)[O-])cc1 [CE10]	< 1000
CC(=O)c1ccc(S(=O)(=O)NC(=O)Nc2c3c(cc4c2CCC4)CCC3)cc1 [Example 1, 4-Acetyl-N-((1,2,3,5,6,7-hexahydro-s-indacen-4-yl)carbamoyl) benzenesulfonamide]	< 1000
Cc1cnc(C(=O)NCCc2ccc(S(=O)(=O)NC(=O)Nc3c4c(cc5c3CCC5)CCC4)cc2)cn1 [Example 3, N-(4-(N-((1,2,3,5,6,7-Hexahydro-s-indacen-4-yl)carbamoyl)sulfamoyl)phenethyl)-5-methylpyrazine-2-carboxamide]	< 1000

Results, then the compound that gave them:

IC50 [nM]	Compound
> 50000	Cc1cc(C(=O)NCCc2ccc(S(=O)(=O)NC(=O)NN3CCCCCC3)cc2)no1 [CE4, Glisoxepide]
> 50000	COc1ccc2c(c1)C(=O)N(CCc1ccc(S(=O)(=O)NC(=O)NC3CCCCC3)cc1)C(=O)C2(C)C [CE5, Gliquidone]
< 1000	Nc1ccc(S(=O)(=O)NC(=O)Nc2c3c(cc4c2CCC4)CCC3)cc1 [CE8]

Target: T2, NLRP3 (Homo sapiens, UniProt Q96P20)
T2 construct: To generate HMDM, human monocytes are isolated from buffy coat blood; endogenous in cells; host or cells: human monocyte-derived macrophages (HMDM) from CD14+ buffy coat monocytes
T2 sequence (Q96P20 whole entry): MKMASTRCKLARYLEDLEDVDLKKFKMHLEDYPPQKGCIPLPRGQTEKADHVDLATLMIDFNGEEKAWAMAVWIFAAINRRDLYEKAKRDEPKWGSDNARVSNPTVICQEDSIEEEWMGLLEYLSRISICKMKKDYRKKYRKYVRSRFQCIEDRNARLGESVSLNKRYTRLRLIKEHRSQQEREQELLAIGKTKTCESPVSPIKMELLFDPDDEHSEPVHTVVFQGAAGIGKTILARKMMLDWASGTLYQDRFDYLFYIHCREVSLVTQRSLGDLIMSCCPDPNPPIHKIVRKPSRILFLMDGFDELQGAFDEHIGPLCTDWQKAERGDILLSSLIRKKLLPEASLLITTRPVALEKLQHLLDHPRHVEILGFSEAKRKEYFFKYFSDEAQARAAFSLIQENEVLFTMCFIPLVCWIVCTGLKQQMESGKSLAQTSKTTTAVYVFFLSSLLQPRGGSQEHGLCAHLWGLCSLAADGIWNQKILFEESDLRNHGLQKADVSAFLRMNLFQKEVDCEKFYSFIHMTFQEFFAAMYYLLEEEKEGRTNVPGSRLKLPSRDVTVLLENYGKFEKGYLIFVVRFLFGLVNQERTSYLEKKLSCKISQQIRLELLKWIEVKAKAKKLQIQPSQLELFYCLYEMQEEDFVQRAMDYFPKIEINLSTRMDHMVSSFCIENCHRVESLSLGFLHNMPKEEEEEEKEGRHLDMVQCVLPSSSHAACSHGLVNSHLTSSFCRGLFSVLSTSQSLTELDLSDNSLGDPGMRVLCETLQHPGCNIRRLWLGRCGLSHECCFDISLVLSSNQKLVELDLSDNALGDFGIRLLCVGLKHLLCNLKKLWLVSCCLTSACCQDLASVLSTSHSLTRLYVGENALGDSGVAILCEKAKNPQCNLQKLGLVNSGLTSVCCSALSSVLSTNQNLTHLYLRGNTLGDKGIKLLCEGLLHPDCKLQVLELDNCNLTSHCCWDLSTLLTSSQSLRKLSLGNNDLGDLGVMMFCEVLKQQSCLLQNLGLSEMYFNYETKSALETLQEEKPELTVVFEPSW
Test: HMDM NLRP3 inflammasome assay, IL-1β secretion (Table 2)
Format: cell-based
Conditions: human monocyte derived macrophages

IC50 [nM]	Compound
< 1000	O=C(Nc1c2c(cc3c1CCC3)CCC2)NS(=O)(=O)c1cccc(C(=O)O)c1 [Example 10, 3-(N-((1,2,3,5,6,7-Hexahydro-s-indacen-4-yl)carbamoyl)sulfamoyl)-benzoic acid]
< 1000	C#CCNC(=O)CCc1ccc(S(=O)(=O)NC(=O)Nc2c3c(cc4c2CCC4)CCC3)cc1 [Example 13, 3-(4-(N-((1,2,3,5,6,7-Hexahydro-s-indacen-4-yl)carbamoyl)sulfamoyl)-phenyl)-N-(prop-2-yn-1-yl)propanamide]

System: MIN6 cells
Test: MIN6 insulin assay (insulin secretion, radioimmunoassay)
Format: cell-based
Conditions: 10 μM test compound, 2.8 mM glucose KRB, 1 h; FIG. 1
Protocol: To confirm the insulinotropic properties of the compounds of the invention, their ability to stimulate insulin secretion from MIN6 cells at a single concentration (10 μM) was tested using the following protocol. The tests were conducted by the Garvan Institute of Medical Research, Sydney, Australia.
MIN6 INSULIN ASSAY PROTOCOL: MIN6 cells (passage 29-37) were incubated for 1 h in Krebs-Ringer buffer (KRB) containing 2.8 mM glucose. The cells were then stimulated for 1 h in either 2.8 mM glucose KRB, 20 mM glucose KRB, or 2.8 mM glucose KRB plus test compound. Supernatants were collected and then assayed using rat insulin radioimmunoassay kit (RI-13K, Merck Millipore).

Compound	insulin secretion from MIN6 cells
CC(C)(O)c1coc(S(=O)(=O)NC(=O)Nc2c3c(cc4c2CCC4)CCC3)c1 [CE7, MCC 950]	basal levels of insulin secretion
